# In PubChem BioAssay AID328 (DTP/NCI, 2004):
# Values joined by “and” are separate entries in the source; they are usually repeats but may differ in a detail not shown here. Identical values can stand only once. Inconclusive results and toxic doses are left out.
# System: BDF1 mice, P388 leukemia ip, median survival T/C
# Test: NCI In Vivo Anticancer Drug Screen. Data for tumor model P388 Leukemia (intraperitoneal) in B6D2F1 (BDF1) mice
# Conditions: endpoint: median survival time, higher = longer survival
# How it was run: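 Vehicle-dosed animals serve as the reference; survival of compound-dosed, tumour-implanted mice is divided by it.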
# [1] = dose: 50.0 mg/kg/injection, schedule: Q01DX009 (ip), vehicle: saline with Tween-80
# [2] = dose: 100.0 mg/kg/injection, schedule: Q01DX009 (ip), vehicle: saline with Tween-80
# [3] = dose: 12.5 mg/kg/injection, schedule: Q01DX009 (ip), vehicle: saline with Tween-80
# [4] = dose: 25.0 mg/kg/injection, schedule: Q01DX009 (ip), vehicle: saline with Tween-80
# [5] = dose: 100.0 mg/kg/injection, schedule: Q04DX003 (ip), vehicle: saline with Tween-80
# [6] = dose: 200.0 mg/kg/injection, schedule: Q04DX003 (ip), vehicle: saline with Tween-80
smiles,measurement,setting,value
O=C1CSC(=O)CS1,T/C,[1],99 % of control
same,T/C,[2],93 % of control
OCc1nccn1Cc1ccccc1,T/C,"dose: 12.5 mg/kg/injection, schedule: Q01DX009 (ip), vehicle: water",108 % of control
same,T/C,"dose: 25.0 mg/kg/injection, schedule: Q01DX009 (ip), vehicle: water",99 % of control
same,T/C,"dose: 50.0 mg/kg/injection, schedule: Q01DX009 (ip), vehicle: water",101 % of control
same,T/C,"dose: 100.0 mg/kg/injection, schedule: Q01DX009 (ip), vehicle: water",108 % of control
same,T/C,"dose: 200.0 mg/kg/injection, schedule: Q01DX009 (ip), vehicle: water",101 % of control
same,T/C,"dose: 300.0 mg/kg/injection, schedule: Q01DX009 (ip), vehicle: water",114 % of control
C[N+](C)(C)c1ccc(/C=N\NC(=O)c2ccccc2)cc1,T/C,"dose: 12.5 mg/kg/injection, schedule: Q01DX009 (ip), vehicle: Klucel (hydroxypropylcellulose) (HPC)",105 % of control
same,T/C,"dose: 12.5 mg/kg/injection, schedule: Q04DX003 (ip), vehicle: Klucel (hydroxypropylcellulose) (HPC)",100 % of control
same,T/C,"dose: 25.0 mg/kg/injection, schedule: Q01DX009 (ip), vehicle: Klucel (hydroxypropylcellulose) (HPC)",105 % of control
same,T/C,"dose: 25.0 mg/kg/injection, schedule: Q04DX003 (ip), vehicle: Klucel (hydroxypropylcellulose) (HPC)",100 % of control
same,T/C,"dose: 50.0 mg/kg/injection, schedule: Q01DX009 (ip), vehicle: Klucel (hydroxypropylcellulose) (HPC)",105 % of control
same,T/C,"dose: 50.0 mg/kg/injection, schedule: Q04DX003 (ip), vehicle: Klucel (hydroxypropylcellulose) (HPC)",95 % of control
CC(C)CCCC(C)C1CCC2C3CC=C4CC(O)CCC4(C)C3CCC12C (stereo not drawn) (tested in a mixture with another compound),T/C,"dose: 25.0 mg/kg/injection, schedule: Q04DX003 (ip), vehicle: alcohol",90 % of control
same,T/C,"dose: 50.0 mg/kg/injection, schedule: Q04DX003 (ip), vehicle: alcohol",100 % of control
same,T/C,"dose: 56.25 mg/kg/injection, schedule: Q01DX009 (ip), vehicle: Klucel (hydroxypropylcellulose) (HPC)",95 % of control
same,T/C,"dose: 100.0 mg/kg/injection, schedule: Q04DX003 (ip), vehicle: alcohol",105 % of control
same,T/C,"dose: 112.5 mg/kg/injection, schedule: Q01DX009 (ip), vehicle: Klucel (hydroxypropylcellulose) (HPC)",100 % of control
same,T/C,"dose: 150.0 mg/kg/injection, schedule: Q04DX003 (ip), vehicle: Klucel (hydroxypropylcellulose) (HPC)",100 % of control
same,T/C,"dose: 225.0 mg/kg/injection, schedule: Q01DX009 (ip), vehicle: Klucel (hydroxypropylcellulose) (HPC)",104 % of control
same,T/C,"dose: 225.0 mg/kg/injection, schedule: Q04DX003 (ip), vehicle: Klucel (hydroxypropylcellulose) (HPC)",104 % of control
CCCCN1CCN(c2ccc([N+](=O)[O-])c3no[n+]([O-])c23)CC1,T/C,"dose: 16.0 mg/kg/injection, schedule: Q04DX003 (ip), vehicle: saline with Tween-80",121 % of control
same,T/C,"dose: 32.0 mg/kg/injection, schedule: Q04DX003 (ip), vehicle: saline with Tween-80",150 % of control
same,T/C,"dose: 64.0 mg/kg/injection, schedule: Q04DX003 (ip), vehicle: saline with Tween-80",100 % of control
CCOCc1nc2nc(Cl)c(Cl)nc2[nH]1,T/C,[3],89 % of control and 99 % of control
same,T/C,[4],89 % of control and 100 % of control
same,T/C,"dose: 25.0 mg/kg/injection, schedule: Q04DX003 (ip), vehicle: saline with Tween-80",100 % of control
same,T/C,[1],86 % of control and 104 % of control and 105 % of control
same,T/C,"dose: 50.0 mg/kg/injection, schedule: Q04DX003 (ip), vehicle: saline with Tween-80",98 % of control
same,T/C,[2],100 % of control
same,T/C,[5],98 % of control
same,T/C,[6],89 % of control and 104 % of control
COc1c(Br)cc(Br)cc1/C=C/[N+](=O)[O-],T/C,"dose: 6.25 mg/kg/injection, schedule: Q01DX009 (ip), vehicle: saline with Tween-80",114 % of control
same,T/C,[3],114 % of control
same,T/C,[4],116 % of control
COC(=O)c1cc(=O)nc(N/N=C/c2ccccc2)s1,T/C,"dose: 50.0 mg/kg/injection, schedule: Q01DX005 (ip), vehicle: saline with Tween-80",109 % of control
same,T/C,"dose: 100.0 mg/kg/injection, schedule: Q01DX005 (ip), vehicle: saline with Tween-80",110 % of control
same,T/C,"dose: 200.0 mg/kg/injection, schedule: Q01DX005 (ip), vehicle: saline with Tween-80",109 % of control
CC(=O)NCCC(C)C,T/C,"dose: 100.0 mg/kg/injection, schedule: Q04DX003 (ip), vehicle: saline",104 % of control
same,T/C,"dose: 200.0 mg/kg/injection, schedule: Q04DX003 (ip), vehicle: saline",113 % of control
same,T/C,"dose: 400.0 mg/kg/injection, schedule: Q04DX003 (ip), vehicle: saline",109 % of control
Cc1cc(=O)[nH]c(N(CCO)CCO)n1,T/C,[2],100 % of control
same,T/C,[5],100 % of control
same,T/C,"dose: 200.0 mg/kg/injection, schedule: Q01DX009 (ip), vehicle: saline with Tween-80",96 % of control
same,T/C,[6],95 % of control
same,T/C,"dose: 400.0 mg/kg/injection, schedule: Q01DX009 (ip), vehicle: saline with Tween-80",88 % of control
same,T/C,"dose: 400.0 mg/kg/injection, schedule: Q04DX003 (ip), vehicle: saline with Tween-80",90 % of control
